According to paper PMC2359919, “Molecular targeting of retinoic acid metabolism in neuroblastoma: the role of the CYP26 inhibitor R116010 in vitro and in vivo” (British Journal of Cancer, 2007):

Assays:
[1] = Pharmacokinetic analysis of RA in an SH-SY5Y xenograft model (retinoid concentrations in plasma, liver, tumour by LC/MS); type: in vivo, CD-1 nude mice; settings: for Plasma % of total retinoids at all time points: 0.5, 2 and 6 h; for % Total retinoids, tumour, 0.5 h / Tumour concentration, 0.5 h / % Total retinoids, tumour, 2 h / Tumour concentration, 2 h / % Total retinoids, tumour, 6 h / Tumour concentration, 6 h: SH-SY5Y tumour; for % Total retinoids, tumour, 0.5 h / Tumour concentration, 0.5 h / % Total retinoids, tumour, 2 h / Tumour concentration, 2 h / % Total retinoids, tumour, 6 h / Tumour concentration, 6 h / % Total retinoids, liver, 0.5 h / Liver concentration, 0.5 h / % Total retinoids, liver, 2 h / Liver concentration, 2 h / % Total retinoids, liver, 6 h / Liver concentration, 6 h / % Total retinoids, plasma, 0.5 h / Plasma concentration, 0.5 h / % Total retinoids, plasma, 2 h / Plasma concentration, 2 h / % Total retinoids, plasma, 6 h / Plasma concentration, 6 h: label = retinoid measured
Experimental: (§1) All in vivo experiments were approved by the relevant institutional animal welfare committees, and performed according to national law. Female athymic nude mice (CD-1 nu/nu, Charles River) used for antitumour studies were maintained and handled in isolators, under specific pathogen-free conditions, at 24°C with a 12 h light, 12 h dark cycle. Tumours were generated by implantation of SH-SY5Y cells subcutaneously (s.c.) into one flank of CD-1 nude mice (1 × 10^7 cells per animal).
(§2) Treatments began when the tumours were between 7 and 10 mm in length and breadth. Retinoids and R116010 were initially dissolved in DMSO before 10- or 20-fold dilutions in PBS, respectively. For pharmacokinetic studies, the animals were dosed with ATRA or 13cisRA (each 100 mg kg^−1) orally for 0.5, 2 and 6 h. For metabolism studies, animals were treated with R116010 orally at doses of 1.25 or 2.5 mg kg^−1 either immediately before the retinoid being studied, or up to three times (over 1–2 days) before dosing with the retinoid. At termination of experiments, animals were bled under terminal anaesthesia then killed by cervical dislocation. Plasma was immediately removed from the blood by centrifugation at 1000 g for 5 min and snap-frozen in liquid nitrogen in amber Eppendorfs. Tumour and liver samples were removed and snap-frozen, wrapped in foil, in liquid nitrogen.
(§3) Cell pellets obtained from retinoid incubations were re-suspended in 2 ml cell culture medium and disrupted by passing the samples several times through a syringe and hypodermic needle (25G × 1 inches, 0.5 mm × 25 mm; Terumo, Somerset, NJ, USA). Tumour and liver tissues were re-suspended in PBS and homogenised (T25 homogeniser, IKA Laboratories, Staufen, Germany). Retinoids were extracted as described previously ([Veal et al, 2002]; [Armstrong et al, 2005b]). Samples were reconstituted in 200 μl mobile phase A (n-hexane:dichloromethane:propan-2-ol, 400 : 1 : 0.27) and analysed by normal-phase HPLC as described previously ([Veal et al, 2002]). For LC/MS analysis, samples were reconstituted in 200 μl mobile phase A (50% acetonitrile, 50% (0.2%) acetic acid, v v^−1).
(§4) Resolution of retinoids was performed with a Luna C18(2) column (3 μm, 50 mm × 2 mm) using a Perkin Elmer LC (Beaconsfield, UK) system, consisting of a vacuum degasser, two series 200 pumps, a thermostatically controlled series 200 autosampler and a Waters 2487 UV absorbance detector. Retinoic isomers and metabolites were separated by gradient reversed-phase chromatography. An injection volume of 20 μl with a flow rate of 0.2 ml min^−1 was used with mobile phase A (50% acetonitrile, 50% (0.2%) acetic acid, v v^−1) and mobile phase B (acetonitrile, 0.1% acetic acid, v v^−1). Linear gradients were employed between the specified times as follows: 0, 100% A; 5 min, 100% A; 15 min, 100% B; 20 min, 100% B; 23 min, 100% A; 35 min, 100% A. An Applied Biosystems (Warrington, UK) API-2000 LC/MS/MS triple Q (quadrupole) mass spectrometer with electrospray ionisation source, controlled by Analyst software, was operated in single quadrupole negative mode for the detection of compounds.

CYP26 = test system: CYP26; parameters: method as in Njar et al, 2006; settings: ref Njar et al, 2006; cited from earlier work
RA metabolism = assay: Effect of R116010 on retinoid concentrations (plasma, liver, tumour) in an SH-SY5Y xenograft model, LC/MS; type: in vivo, CD-1 nude mice; settings: ATRA-treated mice (100 mg kg^−1) without or with R116010; 6 h
Experimental: as §1, §2, §3, §4

[2] = after 13cisRA 100 mg kg^−1 oral

Row | % Total retinoids, tumour, 0.5 h [1, 2] [%] | Tumour concentration, 0.5 h [1, 2] [µg/g] | % Total retinoids, tumour, 2 h [1, 2] [%] | Tumour concentration, 2 h [1, 2] [µg/g] | % Total retinoids, tumour, 6 h [1, 2] [%] | Tumour concentration, 6 h [1, 2] [µg/g] | % Total retinoids, liver, 0.5 h [1, 2] [%] | Liver concentration, 0.5 h [1, 2] [µg/g] | % Total retinoids, liver, 2 h [1, 2] [%] | Liver concentration, 2 h [1, 2] [µg/g] | % Total retinoids, liver, 6 h [1, 2] [%] | Liver concentration, 6 h [1, 2] [µg/g] | % Total retinoids, plasma, 0.5 h [1, 2] [%] | Plasma concentration, 0.5 h [1, 2] [nM] | % Total retinoids, plasma, 2 h [1, 2] [%] | Plasma concentration, 2 h [1, 2] [nM] | % Total retinoids, plasma, 6 h [1, 2] [%] | Plasma concentration, 6 h [1, 2] [nM] | % Total retinoids, tumour, 0.5 h ([1]; after ATRA 100 mg kg^−1 oral) [%] | Tumour concentration, 0.5 h ([1]; after ATRA 100 mg kg^−1 oral) [µg/g] | SMILES | further results
1 | <1 | 0.02 ± 0.0 | 3 | 0.09 ± 0.04 | 16 | 0.09 ± 0.02 | 5 | 0.26 ± 0.10 | 8 | 0.30 ± 0.09 | 12 | 0.67 ± 0.25 | 0 | 0 | <1 | 130 ± 40 | 0 | 0 | 8 | 0.21 ± 0.09 | CC1=C(/C=C/C(C)=C/C=C/C(C)=C/C(=O)O)C(C)(C)CCC1=O [AT-4-oxoRA, all-trans-4-oxo-RA] | Plasma % of total retinoids at all time points ([1]; after 13cisRA 100 mg kg^−1): < 10%; % Total retinoids, tumour, 2 h ([1]; after ATRA 100 mg kg^−1 oral): 2%; Tumour concentration, 2 h ([1]; after ATRA 100 mg kg^−1 oral): 0.24 ± 0.06 µg/g; % Total retinoids, tumour, 6 h ([1]; after ATRA 100 mg kg^−1 oral): 17%; Tumour concentration, 6 h ([1]; after ATRA 100 mg kg^−1 oral): 0.79 ± 0.38 µg/g; % Total retinoids, liver, 0.5 h ([1]; after ATRA 100 mg kg^−1 oral): 11%; Liver concentration, 0.5 h ([1]; after ATRA 100 mg kg^−1 oral): 0.44 ± 0.12 µg/g; % Total retinoids, liver, 2 h ([1]; after ATRA 100 mg kg^−1 oral): 13%; Liver concentration, 2 h ([1]; after ATRA 100 mg kg^−1 oral): 1.07 ± 0.05 µg/g; % Total retinoids, liver, 6 h ([1]; after ATRA 100 mg kg^−1 oral): 45%; Liver concentration, 6 h ([1]; after ATRA 100 mg kg^−1 oral): 2.39 ± 0.72 µg/g; Liver concentration, 6 h ([1]; after ATRA 100 mg kg^−1 oral, listed as AT-4-oxo-RA): 2.39 µg/g; % Total retinoids, plasma, 0.5 h ([1]; after ATRA 100 mg kg^−1 oral): 4%; Plasma concentration, 0.5 h ([1]; after ATRA 100 mg kg^−1 oral): 600 ± 400 nM; % Total retinoids, plasma, 2 h ([1]; after ATRA 100 mg kg^−1 oral): 6%; Plasma concentration, 2 h ([1]; after ATRA 100 mg kg^−1 oral): 1700 ± 300 nM; % Total retinoids, plasma, 6 h ([1]; after ATRA 100 mg kg^−1 oral): 22%; Plasma concentration, 6 h ([1]; after ATRA 100 mg kg^−1 oral): 4000 ± 2400 nM
2 | – | – | – | – | – | – | – | – | – | – | – | – | – | – | – | – | – | – | – | – | Clc1cccc(C(c2ccc3[nH]cnc3c2)n2ccnc2)c1 (stereo not drawn) [liarozole] | Ability to inhibit CYP26 (CYP26): only moderate ability to inhibit CYP26
3 | 3 | 0.06 ± 0.02 | 2 | 0.04 ± 0.0 | 19 | 0.11 ± 0.05 | 18 | 0.89 ± 0.22 | 33 | 1.33 ± 0.08 | 69 | 3.79 ± 0.99 | 2 | 270 ± 110 | 3 | 630 ± 100 | 20 | 1220 ± 240 | 0 | 0 | CC1=C(/C=C/C(C)=C/C=C/C(C)=C\C(=O)O)C(C)(C)CCC1=O [13cis-4-oxoRA, 13-cis-4-oxo-RA] | Liver concentration, 6 h ([1]; after 13cisRA 100 mg kg^−1 oral, listed as 13cis-4-oxo-RA): 3.79 µg/g; Plasma % of total retinoids at all time points ([1]; after ATRA 100 mg kg^−1): < 10%; % Total retinoids, tumour, 2 h ([1]; after ATRA 100 mg kg^−1 oral): 0%; Tumour concentration, 2 h ([1]; after ATRA 100 mg kg^−1 oral): 0 µg/g; % Total retinoids, tumour, 6 h ([1]; after ATRA 100 mg kg^−1 oral): 0%; Tumour concentration, 6 h ([1]; after ATRA 100 mg kg^−1 oral): 0 µg/g; % Total retinoids, liver, 0.5 h ([1]; after ATRA 100 mg kg^−1 oral): 1%; Liver concentration, 0.5 h ([1]; after ATRA 100 mg kg^−1 oral): 0.06 ± 0.03 µg/g; % Total retinoids, liver, 2 h ([1]; after ATRA 100 mg kg^−1 oral): 1%; Liver concentration, 2 h ([1]; after ATRA 100 mg kg^−1 oral): 0.09 ± 0.02 µg/g; % Total retinoids, liver, 6 h ([1]; after ATRA 100 mg kg^−1 oral): 4%; Liver concentration, 6 h ([1]; after ATRA 100 mg kg^−1 oral): 0.22 ± 0.09 µg/g; % Total retinoids, plasma, 0.5 h ([1]; after ATRA 100 mg kg^−1 oral): <1%; Plasma concentration, 0.5 h ([1]; after ATRA 100 mg kg^−1 oral): 30 ± 10 nM; % Total retinoids, plasma, 2 h ([1]; after ATRA 100 mg kg^−1 oral): <1%; Plasma concentration, 2 h ([1]; after ATRA 100 mg kg^−1 oral): 20 ± 10 nM; % Total retinoids, plasma, 6 h ([1]; after ATRA 100 mg kg^−1 oral): <1%; Plasma concentration, 6 h ([1]; after ATRA 100 mg kg^−1 oral): 50 ± 30 nM; Plasma 13cis-4-oxo-RA (RA metabolism): not detectable
